# Laboratory results taken from patent US20180055877A1, “THERAPEUTIC NANOPARTICLES AND METHODS THEREOF” (priority 2014, published 2018).
# Experiments:
# [1] = test system: T. rubrum; assay: aPI in the presence of ROS and RNS scavengers, CFU; assay type: cell-based; conditions: scavenger added before aPI with curcumin photosensitizer
# Method: (§4) Different ROS and RNS scavengers were used to evaluate the effect of radical stress inhibition on aPI efficacy. […] Scavengers were added to fungal suspensions immediately before initiation of aPI and incubated for 1 h with RPMI 1640 without phenol red plus 2% glucose at 28° C. To evaluate fungal viability, 150 μL of the fungal suspensions were plated onto PDA, and incubated at 28° C. for 72 hours. The HT TitierTACS™ assay kit (Trevigen, Gaithersburg, Md., USA) was used to evaluate the occurrence of apoptosis after aPI.
# [2] = test system: Pseudomonas aeruginosa, MRSA, Escherichia coli, Klebsiella pneumoniae; conditions: same concentration as generated from the nanoparticles; cited from earlier work
# [3] = test system: E. coli clinical strains; assay: Bacterial growth susceptibility (OD600), E. coli; assay type: cell-based; conditions: all concentrations tested, up to 24 h, vs untreated
# Method: (§1) In this example, 8 clinical strains each of MRSA and E. coli were evaluated. For each bacterial strain, one colony of bacteria grown on tryptic soy agar (TSA) was suspended in 1 mL tryptic soy broth (TSB). One μL aliquots were transferred to a 100-well honeycomb plate with 199 μL TSB. This TSB contained either 1, 2.5, 5, or 10 mg/mL SNO-CAP-np, or 2.5, 5, or 10 mM captopril, and controls included wells containing bacteria and TSB alone. The background absorbance of each SNO-CAP-np concentration was accounted for by wells containing SNO-CAP-np and TSB alone. No background absorbance was measured for captopril. […] All wells were incubated for 24 hours at 37° C. and growth was assessed by measuring optical density at 600 nm (OD600) with a microplate reader (Bioscreen C, Growth Curves USA, Piscataway, N.J.). Each condition was measured in triplicate, and averages were calculated along with standard error of the mean (SEM).
# (§2) E. coli and MRSA strains were incubated at 37° C. with and without various concentrations of SNO-CAP-np (1, 2.5, 5, or 10 mg/mL) or captopril ([…]) for 24 h. […] Each data set represents averages for 8 strains of either E. coli or MRSA, and conditions for each strain were measured in triplicate. […]
# [4] = test system: MRSA clinical strains; assay: Bacterial growth susceptibility (OD600), MRSA; assay type: cell-based; conditions: all concentrations tested, up to 24 h, vs untreated
# Method: as §1, §2
# [5] = test system: E. coli; assay: Colony-forming units (CFU) assay, E. coli; assay type: cell-based; conditions: 24 h
# Method: (§3) Following 24 h incubation of E. coli and MRSA, 10 μL aspirates from wells of the honeycomb plates were transferred to Eppendorf tubes with 990 μL PBS and gently vortexed. Controls were collected in the same fashion from wells containing only bacteria and TSB. The suspensions were serially diluted in PBS so that final concentrations were 10^−6 of the incubated concentration, and 100 μL aliquots were plated on TSA plates for 24 h. As with the absorbance assays, 8 clinical strains each of MRSA and E. coli were evaluated (data represents an average for the 8 strains each of E. coli and MRSA), and all conditions were measured in triplicate. CFU's were counted and recorded. Percent survival was determined by comparing CFU counts of SNO-CAP-np- or captopril-treated bacteria to CFU counts of untreated bacteria. P-value <0.05 by unpaired t-test was considered significant.
# [6] = test system: MRSA; assay: Colony-forming units (CFU) assay, MRSA; assay type: cell-based; conditions: 24 h
# Method: as §3
# [7] = test system: T. rubrum microconidia; assay: Antimicrobial photodynamic inhibition (aPI) optimization, CFU; assay type: cell-based
# Method: In this example, a curcumin (Sigma-Aldrich, St. […] For susceptibility testing, the stock was dilution in RPMI 1640 medium to a final concentration of 40 μg/mL. For aPI, the stock was diluted in PBS to concentrations of 1.0, 10 and 100 μg/mL. […] A comparative concentration of curcumin incorporated in nanoparticles was used based on spectrophotometric release curves showing that each mg of curc-np contained 10 μg of curcumin. For susceptibility testing, 8 mg of curc-np was suspended in 1 mL of PBS and diluted in RPMI to a final concentration of […] (equivalent to 40 μg/mL of encapsulated curcumin). For aPI, 10 mg of curc-np was suspended in 1 mL of PBS and serially diluted to obtain 10 μg/mL, 100 μg/mL and 10 mg/L of curc-np (equivalent to 1.0, 10, and 100 μg/mL of encapsulated curcumin). The light source used was BLU-U® light model 4070 (DUSA pharmaceuticals, Wilmington, Mass., USA), which emits blue light at a wavelength of 417±5 nm. The doses used were 10 J/cm^2 (17 minutes), 20 J/cm^2 (34 minutes), and 40 J/cm^2 (68 minutes). BLU-U light was chosen as the light source due to its resonance with curcumin. For aPI optimization, fungal cells were submitted to different treatment conditions by varying the photosensitizer (PS) concentration and light dose, as described in Table 1, below. PS without photoactivation and blue light alone served as dark toxicity and light controls, respectively. […] [table]
# [8] = test system: T. rubrum; assay: Susceptibility testing (microdilution, CLSI M38-A) and growth curves; assay type: cell-based
# Method: Susceptibility of T. rubrum to ground-state curcumin was tested by a microdilution method according to CLSI M38-A.49, 52 Itraconazole concentration ranged from 0.015 μg/mL to 8 μg/mL and curcumin and curc-np concentrations from 0.0012 μg/mL to 20 μg/mL. A 1% DMSO solution in control medium was evaluated. The MIC value was defined as the concentration required for 80% […] compared to untreated control. 12, 49 Growth kinetics of ground-state curcumin compared to aPI was also evaluated. Growth was evaluated for 7 days at 28° C. using a Bioscreen C growth curve system (Growth Curves USA, Piscataway, N.J., USA).
# [9] = test system: T. rubrum; assay: Intracellular ROS and RNS after aPI, flow cytometry; assay type: cell-based; conditions: vs untreated
# Method: Following aPI, samples were incubated with fluorescent probes for 30 minutes at 28° C., and subsequently analyzed with flow cytometry (Becton Dickinson™ LSRII, USA) using a 530/30 nm band pass filter for fluorescence detection. The Mean Fluorescence Intensity (MFI) was considered to determine radical production. Data analyses were performed using FlowJo 10.1 software.
# [10] = test system: T. rubrum cells; assay: Apoptosis assay after aPI (HT TitierTACS kit); assay type: cell-based; conditions: vs untreated control
# Method: as §4
# [11] = test system: J774.16 macrophages challenged with T. rubrum; assay: Phagocytosis assay: J774.16 macrophages challenged with T. rubrum and treated with aPI; assay type: cell-based
# Method: Macrophages were challenged with T. rubrum and treated with aPI to investigate the efficacy against infected mammalian cells. Specifically, J774.16 macrophages were grown at 37° C. with 10% CO2 in DMEM (Cellgro, Manassas, Va., USA). The fungal-macrophage cell proportion was 1:1, with 5.0×10^5 fungal cells to 5.0×10^5 macrophage cells. After challenging macrophages with T. rubrum microconidia, the cells were submitted to aPI, followed by incubation in the 10% CO2 chamber at 37° C. for 24 hours. The macrophages were lysed with cold distilled water and the lysate plated onto PDA and incubated at 28° C. for 72 hours.
# [12] = test system: T. rubrum; assay: In vivo antimicrobial photodynamic therapy (aPDT) pilot study; design: species or system BALB/c mice; conditions: 500 μg/mL in coconut oil, 10 J/cm^2 blue light, one treatment, CFU three days post treatment
# Method: BALB/c mice were subcutaneously infected with T. rubrum. Seven days post-infection, mice (n=2 per group) were submitted to one treatment of aPDT, using 500 μg/mL of curcumin and curc-np suspended in coconut oil and 10 J/cm^2 of blue light. Pre-irradiation incubation time was 30 minutes, under light protection. Tissue was homogenized and CFUs quantified three days post treatment.
smiles,measurement,setting,value
OC[C@@H](O)[C@@H](O)[C@H](O)[C@H](O)CO [D-mannitol],"inhibition of aPI efficacy by scavenger (fungal growth, CFU)",[1],none of the concentrations
"Cl.O=S(=O)([O-])c1ccc(-c2c3nc(c(-c4ccc(S(=O)(=O)O)cc4)c4ccc([nH]4)c(-c4ccc(S(=O)(=O)O)cc4)c4nc(c(-c5ccc(S(=O)(=O)O)cc5)c5ccc2[nH]5)C=C4)C=C3)cc1.[Fe] [FeTPPs, 5,10,15,20-tetrakis-(4-sulfonatophenyl)-porphyrinato iron (III) chloride]","inhibition of aPI efficacy by scavenger (fungal growth, CFU)",[1],T. rubrum growth was relatively intact despite aPI
"N[C@@H](CCC(=O)N[C@@H](CSN=O)C(=O)NCC(=O)O)C(=O)O [GSNO, S-nitrosoglutathione]",antibacterial activity of an aliquot,[2],no antibacterial activity was observed
"O.O=S(=O)([O-])c1cc(O)c(O)c(S(=O)(=O)[O-])c1.[Na+].[Na+] [Tiron, 4,5-dihydroxy-1,3-benzenedisulfonic acid disodiumsalt hydrate]","inhibition of aPI efficacy by scavenger (fungal growth, CFU)",[1],none of the concentrations
C[C@H](CS)C(=O)N1CCC[C@H]1C(=O)O [captopril],effect on E. coli growth (OD600),[3],showed an effect on E. coli growth in a dose dependent fashion
same,effect on MRSA growth (OD600),[4],did not have an effect
same,average E. coli survival compared with untreated controls,[5]; 2.5 mM,85%
same,average E. coli survival compared with untreated controls,[5]; 5 mM,83.6%
same,average E. coli survival compared with untreated controls,[5]; 10 mM,59.1%
same,average MRSA survival compared with untreated controls,[6]; 2.5 mM,99.3%
same,average MRSA survival compared with untreated controls,[6]; 5 mM,95.6%
same,average MRSA survival compared with untreated controls,[6]; 10 mM,69.5%
CC1(C)N([O])C(c2ccc(C(=O)O)cc2)=[N+]([O-])C1(C)C [carboxy-PTIO],"inhibition of aPI efficacy by scavenger (fungal growth, CFU)",[1],T. rubrum growth was relatively intact despite aPI
COc1cc(/C=C/C(=O)CC(=O)/C=C/c2ccc(O)c(OC)c2)ccc1O [curcumin],"fungal viability (CFU) after aPI, lowest PS concentration","[7]; 0.1 μg/mL, blue light 40 J/cm^2",did not differ significantly from untreated control
same,T. rubrum growth (CFU) after aPI at varying light dose,"[7]; 10 μg/mL, blue light 10, 20 and 40 J/cm^2",completely inhibited T. rubrum growth
same,"fungal growth (CFU) after aPI, highest concentration","[7]; 10 μg/mL, blue light 40 J/cm^2",complete growth inhibition
same,fungal viability (CFU) after aPI,"[7]; 1.0 and 10 μg/mL, blue light 40 J/cm^2, vs untreated",significantly decreased fungal viability
same,"fungal burden, PS without photoactivation (dark toxicity)","[7]; three concentrations tested, no light",did not reduce fungal burden
same,"fungal growth reduction, ground-state (no photoactivation)","[8]; seven-day incubation, 0.0012-20 μg/mL",did not yield significant 80% reduction of fungal growth
same,fold change in NO. production,[9]; DAF-FM probe,6 fold
same,fold-change in ONOO. production,[9]; DHR 123 probe,7 fold
same,fold-change in ROS production,[9]; H2DCFDA probe,17 fold
same,apoptosis of T. rubrum cells after irradiation with blue light,[10],significant trend towards increased apoptosis
same,apoptosis of T. rubrum cells without irradiation,[10],did not induce apoptosis
same,"macrophage-induced destruction of T. rubrum cells, no aPI",[11]; ground state,caused a decrease in macrophage-induced destruction of T. rubrum cells
same,fungal burden (CFU) in macrophages after aPI,"[11]; vs untreated, dark toxicity and blue light controls",significantly reduced fungal burden
same,fungal burden compared to untreated control,[12],did not significantly reduce fungal burden
CCC(C)n1ncn(-c2ccc(N3CCN(c4ccc(OCC5COC(Cn6cncn6)(c6ccc(Cl)cc6Cl)O5)cc4)CC3)cc2)c1=O (centres unmarked) [itraconazole],MIC,"[8]; Trichophyton rubrum, clinical T. rubrum strain",0.25 µg/mL
CC(=O)C(=O)[O-].[Na+] [sodium pyruvate],"inhibition of aPI efficacy by scavenger (fungal growth, CFU)",[1],none of the concentrations
